# Measurements published in PubChem BioAssay AID588465 (NMMLSC, 2011).
# Molecular target: Beta-adrenergic receptor kinase 1 (Homo sapiens) (UniProt P25098)
# Assay: GRK2 kinase inhibitors, rhodopsin substrate, late-stage follow-up, orthogonal assay for GRK2 aptamer-displacement inhibitor project, biochemical, set 1 (AID 588465)
# Settings: GRK2 rhodopsin phosphorylation, 32P incorporation, ROS; at 200 µM; stronger effect = lower value
# Beta-adrenergic receptor kinase 1 (Homo sapiens), sequence (P25098 whole entry, looked up): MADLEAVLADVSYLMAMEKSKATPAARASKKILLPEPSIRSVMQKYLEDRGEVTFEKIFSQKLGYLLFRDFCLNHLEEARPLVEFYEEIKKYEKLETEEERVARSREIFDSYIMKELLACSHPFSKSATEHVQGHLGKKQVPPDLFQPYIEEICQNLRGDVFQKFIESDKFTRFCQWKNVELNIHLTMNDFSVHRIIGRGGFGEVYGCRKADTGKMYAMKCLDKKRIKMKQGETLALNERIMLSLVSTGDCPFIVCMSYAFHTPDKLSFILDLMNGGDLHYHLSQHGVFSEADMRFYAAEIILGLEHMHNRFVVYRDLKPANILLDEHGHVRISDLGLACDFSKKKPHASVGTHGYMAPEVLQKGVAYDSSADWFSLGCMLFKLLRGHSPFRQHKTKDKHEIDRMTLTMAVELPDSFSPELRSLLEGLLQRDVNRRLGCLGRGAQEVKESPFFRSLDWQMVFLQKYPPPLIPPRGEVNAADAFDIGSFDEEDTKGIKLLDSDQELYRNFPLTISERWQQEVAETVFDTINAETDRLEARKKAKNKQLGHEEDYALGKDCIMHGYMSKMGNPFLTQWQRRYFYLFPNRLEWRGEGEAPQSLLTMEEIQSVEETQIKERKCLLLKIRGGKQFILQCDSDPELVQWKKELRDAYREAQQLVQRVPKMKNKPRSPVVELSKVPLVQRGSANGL
row,Compound,percent response (negative = inhibition)
1,O=C(CCS(=O)(=O)c1ccc(Br)cc1)NCCc1ccc(Cl)cc1,-35.6%
2,Cc1cccc(N2CCN(C(=O)CCS(=O)(=O)c3ccc(Br)cc3)CC2C)c1 (stereo not given),-24%
3,O=C(O)C1CC(=O)N(c2ccc3c(c2)OCCO3)C1 (stereo not given),-77.7%
4,O=C(CCS(=O)(=O)c1ccc(Br)cc1)Nc1cc(F)ccc1F,-37.5%
5,COc1ccc(CNC(=O)CCS(=O)(=O)c2ccc(Br)cc2)cc1,-59.5%
6,Cc1ccccc1NC(=O)CCS(=O)(=O)c1ccc(Br)cc1,-12.6%
7,CCc1ccccc1NC(=O)CCS(=O)(=O)c1ccc(Br)cc1,-26%
8,Cc1cc(=O)[nH]c(SCC(=O)NCc2ccco2)n1,-17.7%
9,CCOc1ccc(CCNC(=O)CCS(=O)(=O)c2ccc(Br)cc2)cc1OCC,-69.7%
10,Cc1cc2ccccc2n1CCNC(=O)c1cccs1,-42.4%
